Assay results from patent US10670605B2, “Cysteine reactive probes and uses thereof” (The Scripps Research Institute, priority 2015, dated 2020).

Experiments:
MLTK (ZAK) C22 = molecular target: T1, MLTK (ZAK) C22 (Homo sapiens, UniProt Q9NYL2); assay: Blockade of ibrutinib-derived probe 59 labeling of MLTK (gel-based ABPP); assay type: binding; details: read-out: IC50 for blockade of ibrutinib probe 59 labeling of MLTK; recombinant MLTK in HEK293T lysate
T1 construct: expressed in transfected cells
T1 sequence (Q9NYL2 whole entry): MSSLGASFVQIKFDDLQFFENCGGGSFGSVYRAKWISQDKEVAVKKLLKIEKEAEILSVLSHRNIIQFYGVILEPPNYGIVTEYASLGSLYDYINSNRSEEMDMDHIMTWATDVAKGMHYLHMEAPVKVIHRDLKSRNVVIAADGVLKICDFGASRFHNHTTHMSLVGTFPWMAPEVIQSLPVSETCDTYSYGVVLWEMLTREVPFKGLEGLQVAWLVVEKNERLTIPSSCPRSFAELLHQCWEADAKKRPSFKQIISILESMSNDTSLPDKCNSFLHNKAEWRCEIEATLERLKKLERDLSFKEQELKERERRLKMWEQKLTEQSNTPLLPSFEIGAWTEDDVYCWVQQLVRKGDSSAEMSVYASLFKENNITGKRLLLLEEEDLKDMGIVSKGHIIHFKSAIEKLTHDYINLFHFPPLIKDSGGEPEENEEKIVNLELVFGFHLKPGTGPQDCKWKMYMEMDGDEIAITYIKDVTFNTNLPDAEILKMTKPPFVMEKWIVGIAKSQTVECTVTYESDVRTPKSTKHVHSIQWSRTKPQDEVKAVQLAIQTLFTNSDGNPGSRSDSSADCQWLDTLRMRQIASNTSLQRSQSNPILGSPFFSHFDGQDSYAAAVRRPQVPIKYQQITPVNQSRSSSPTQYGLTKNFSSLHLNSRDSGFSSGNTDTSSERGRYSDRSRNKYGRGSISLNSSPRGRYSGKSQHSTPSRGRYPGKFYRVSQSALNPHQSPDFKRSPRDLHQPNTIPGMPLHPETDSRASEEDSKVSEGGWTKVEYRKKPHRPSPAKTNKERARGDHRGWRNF
Experimental: CuAAC was performed with 20 μM rhodamine-azide (50× stock in DMSO), 1 mM tris(2-carboxyethyl)phosphine hydrochloride (TCEP; fresh 50× stock in water, final concentration=1 mM), ligand (17× stock in DMSO:t-butanol 1:4, final concentration=100 μM) and 1 mM CuSO4 (50× stock in water, final concentration=1 mM). […] Quenched reactions were analyzed by SDS-PAGE and visualized by in-gel fluorescence. […] For MLTK, HEK 293T cells stably overexpressing MTLK^2 were treated with the indicated fragment electrophiles for 1 h, followed by labeling with 59 (1 μl, of 125 μM, final concentration=5 μM) for 1 h. These were followed by CuAAC conjugation to rhodamine-azide and evaluation by SDS-PAGE as described above.

MLTK [1] = molecular target: T2, MLTK (Homo sapiens, UniProt Q9NYL2); assay: MLTK in vitro kinase activity assay; assay type: biochemical; details: WT-MLTK, 100 μM fragment
T2 construct: expressed in transfected cells
T2 sequence (Q9NYL2 whole entry, the tested form may be a part): as the sequence (Q9NYL2 whole entry) above
Experimental: (§1) The kinase activity assay protocol was conducted as described in Wang et al. ACS Chemical biology 9:2194-2198 (2014). Kinase assay buffers, myelin basic protein (MBP) substrate and ATP stock solution were purchased from SignalChem. Radio-labeled [γ-^33P] ATP was purchased from PerkinElmer. 250 μL of HEK-293T soluble lysates (8 mg/mL), stably overexpressing WT, C22A or K45M MLTK were labeled for 1 h with 100 μM fragment or DMSO. The samples were then individually immunoprecipitated with 20 μL flag resin slurry per sample and then eluted with 15 μL 3×Flag-peptide. To each sample was added 5 μL of MBP and then 5 μL of [γ-^33P] ATP assay cocktail (250 μM, 167 μCi/mL) was added to initiate the kinase reaction. Each reaction mixture was incubated at ambient temperature for 30 min, and the reactions were terminated by spotting 25 μL of the reaction mixture onto individual precut phosphocellulose P81 paper. The spotted P81 strips were washed with 10 mL of 1% phosphoric acid (3×10 min). MLTK activity was measured by counting the radioactivity on the P81 paper in the presence of scintillation fluid in a scintillation counter. […] Relative activities for WT and C22A were normalized to their respective DMSO treated samples. Experiments were performed in triplicate.

MLTK [2] = molecular target: T3, MLTK (Homo sapiens, UniProt Q9NYL2, C22A); assay: MLTK in vitro kinase activity assay; assay type: biochemical; details: C22A-MLTK, 100 μM fragment
T3 construct: expressed in transfected cells
T3 sequence (Q9NYL2 whole entry C22A, the tested form may be a part): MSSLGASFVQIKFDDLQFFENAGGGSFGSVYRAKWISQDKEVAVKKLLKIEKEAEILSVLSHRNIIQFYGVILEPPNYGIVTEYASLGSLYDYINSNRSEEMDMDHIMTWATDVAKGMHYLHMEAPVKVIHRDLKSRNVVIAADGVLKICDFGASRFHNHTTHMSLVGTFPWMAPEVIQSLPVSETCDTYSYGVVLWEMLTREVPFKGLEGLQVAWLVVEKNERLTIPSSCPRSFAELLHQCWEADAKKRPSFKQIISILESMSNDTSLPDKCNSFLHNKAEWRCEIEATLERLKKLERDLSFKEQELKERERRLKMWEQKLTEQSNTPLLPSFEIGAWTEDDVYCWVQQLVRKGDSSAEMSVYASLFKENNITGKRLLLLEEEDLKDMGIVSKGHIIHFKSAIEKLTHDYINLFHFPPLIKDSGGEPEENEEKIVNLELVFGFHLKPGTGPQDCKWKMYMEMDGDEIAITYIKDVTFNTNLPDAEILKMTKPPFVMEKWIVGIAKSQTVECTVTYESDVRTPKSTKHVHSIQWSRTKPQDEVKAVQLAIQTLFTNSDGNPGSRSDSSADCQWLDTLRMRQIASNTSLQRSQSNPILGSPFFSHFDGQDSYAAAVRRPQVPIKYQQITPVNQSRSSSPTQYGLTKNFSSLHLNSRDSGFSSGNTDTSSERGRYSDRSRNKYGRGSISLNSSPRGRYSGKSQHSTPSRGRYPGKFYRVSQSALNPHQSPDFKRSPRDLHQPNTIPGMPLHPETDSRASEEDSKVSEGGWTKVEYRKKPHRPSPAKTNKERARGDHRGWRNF
Experimental: as §1

IMPDH2 (C140) = assay: Click probe 18 labeling of recombinant IMPDH2 and its competition; assay type: binding, human; details: probe 25 μM
[3] = tested on: protein targets in MDA-MB-231 cells; assay: Whole protein capture with click probes (SILAC proteomics), native vs heat denatured; assay type: binding, human; details: proteins liganded by parent fragment (3 / 14) and enriched by click probe (19 / 18)
Experimental: Protein enrichment by 18 and 19 was measured by whole protein capture of isotopically-SILAC labeled MDA-MB-231 cells using quantitative (SILAC) proteomics.

Row | Structure (SMILES) | IC50 (MLTK (ZAK) C22) | catalytic activity of MLTK (substrate phosphorylation) (MLTK [1]) | inhibitory effect on C22A-MLTK mutant (MLTK [2]) | direct labeling of IMPDH2 WT and mutants by click probe (IMPDH2 (C140)) | percentage of quantified protein targets sensitive to heat denaturation [3]
1 | O=C(CCl)N1N=C(c2ccco2)CC1c1cc2ccccc2o1 (centres unmarked) [compound 60] | 2.6 µM | blocked the catalytic activity | not observed |  | 
2 | C#CCCCCNC(=O)c1cc(NC(=O)C=C)cc(C(F)(F)F)c1 [compound 18] |  |  |  | labeled WT-IMPDH2 and a C331S-IMPDH2 mutant, but not the C140S or C140S/C331S mutants | 73%
